Data taken from patent US20110230476A1, “PI3 KINASE INHIBITORS AND USES THEREOF” (AVILA THERAPEUTICS, INC., priority 2009, published 2011).

Target: T1, PI3Kα (p110α/p85α) (Homo sapiens, UniProt P42336)
T1 construct: purchased BPS Bioscience (San Diego, Calif.) or Millipore (Billerica, Mass.)
Test: HTRF assay, potency against active PI3Kα
Format: biochemical
Conditions: HTRF; [ATP]=50 μM, [di-C8-PIP2]=10 μM; 30 min pre-incubation; read-out: PI3Kα Inhibition
Method: Homogeneous Time Resolved Fluorescence (HTRF) Assay Protocol for Potency Assessment Against the Active Forms of PI3Kα, PI3Kβ, and PI3Kγ
The mechanics of the assay platform are best described by the vendor (Millipore, Billerica, Mass.) on their website at the following URL: www.millipore.com/coa/tech1/74jt4z.
Briefly, Stop solution (Stop A, #33-007 and Stop B, #33-009; 3:1 ratio) and Detection Mix (from DMC, #33-015 with DMA, #33-011 and DMB, #33-013; 18:1:1 ratio) were prepared as recommended by the manufacturer about 2 hrs prior to use. […] Lipid kinase reactions were started with the addition of 5 μL of ATP solution, mixed for 15 sec on a rotary plate shaker and incubated for 30-60 minutes at 25° C. Next, reactions were stopped with a 5 μL addition of Stop solution immediately followed by a 5 μL volume of Detection Mix. […] At the conclusion of each assay, the HTRF ratio from fluorescence emission values for each well was calculated and % Inhibition determined from averaged controls wells (+/−PI3K enzyme). % Inhibition values for each compound were then plotted against inhibitor concentration to estimate IC50 from log [Inhibitor] vs Response, Variable Slope model in GraphPad Prism from GraphPad Software (San Diego, Calif.).

T1 sequence (P42336 whole entry): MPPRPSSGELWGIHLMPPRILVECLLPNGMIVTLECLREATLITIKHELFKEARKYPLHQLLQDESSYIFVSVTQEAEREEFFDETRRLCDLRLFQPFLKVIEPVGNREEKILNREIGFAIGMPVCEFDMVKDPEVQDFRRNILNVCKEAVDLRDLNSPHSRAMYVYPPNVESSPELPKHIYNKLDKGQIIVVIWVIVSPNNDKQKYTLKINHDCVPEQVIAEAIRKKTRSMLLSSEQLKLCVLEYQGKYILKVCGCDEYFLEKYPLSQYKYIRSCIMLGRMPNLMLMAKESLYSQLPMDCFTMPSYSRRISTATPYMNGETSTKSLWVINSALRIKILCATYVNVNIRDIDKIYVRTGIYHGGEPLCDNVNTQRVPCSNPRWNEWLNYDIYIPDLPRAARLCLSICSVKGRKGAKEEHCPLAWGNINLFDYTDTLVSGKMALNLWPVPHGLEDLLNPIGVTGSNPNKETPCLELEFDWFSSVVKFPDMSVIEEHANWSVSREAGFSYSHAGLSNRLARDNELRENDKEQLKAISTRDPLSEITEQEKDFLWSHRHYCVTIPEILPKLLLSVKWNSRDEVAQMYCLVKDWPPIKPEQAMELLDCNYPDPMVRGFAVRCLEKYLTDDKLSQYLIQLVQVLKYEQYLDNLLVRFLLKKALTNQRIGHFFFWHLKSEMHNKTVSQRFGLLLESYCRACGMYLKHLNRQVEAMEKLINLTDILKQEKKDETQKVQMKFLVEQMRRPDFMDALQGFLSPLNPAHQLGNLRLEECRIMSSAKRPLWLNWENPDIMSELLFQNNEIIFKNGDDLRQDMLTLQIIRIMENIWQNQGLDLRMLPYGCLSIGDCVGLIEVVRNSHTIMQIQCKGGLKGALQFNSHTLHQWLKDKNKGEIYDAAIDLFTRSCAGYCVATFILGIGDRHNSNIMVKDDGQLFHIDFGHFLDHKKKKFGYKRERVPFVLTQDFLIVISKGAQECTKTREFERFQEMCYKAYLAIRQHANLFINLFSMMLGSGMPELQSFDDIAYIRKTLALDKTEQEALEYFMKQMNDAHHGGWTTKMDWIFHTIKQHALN
T1 sequence (P27986 whole entry partner): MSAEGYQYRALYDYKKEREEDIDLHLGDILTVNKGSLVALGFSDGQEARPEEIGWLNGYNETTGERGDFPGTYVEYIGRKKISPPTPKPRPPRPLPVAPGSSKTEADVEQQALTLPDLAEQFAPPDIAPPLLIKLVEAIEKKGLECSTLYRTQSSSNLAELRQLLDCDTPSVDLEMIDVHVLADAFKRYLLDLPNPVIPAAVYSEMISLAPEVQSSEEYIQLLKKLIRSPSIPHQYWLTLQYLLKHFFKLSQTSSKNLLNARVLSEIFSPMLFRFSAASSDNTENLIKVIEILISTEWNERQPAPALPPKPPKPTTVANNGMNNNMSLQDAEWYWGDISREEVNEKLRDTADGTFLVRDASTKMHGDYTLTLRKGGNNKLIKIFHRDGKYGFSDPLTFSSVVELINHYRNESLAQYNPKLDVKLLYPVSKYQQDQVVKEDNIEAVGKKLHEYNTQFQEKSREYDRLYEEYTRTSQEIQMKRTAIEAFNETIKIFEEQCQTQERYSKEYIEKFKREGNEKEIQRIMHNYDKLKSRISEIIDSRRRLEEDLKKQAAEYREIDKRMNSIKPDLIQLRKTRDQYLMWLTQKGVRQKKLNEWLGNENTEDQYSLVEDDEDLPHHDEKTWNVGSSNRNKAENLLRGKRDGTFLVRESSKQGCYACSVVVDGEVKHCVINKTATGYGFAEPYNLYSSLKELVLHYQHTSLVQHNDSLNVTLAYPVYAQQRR

IC50 | SMILES
100 to 1000 nM | C=CC(=O)N[C@@H]1CCCC[C@H]1C(=O)N1CCN(Cc2cc3nc(-c4cccc5[nH]ncc45)nc(N4CCOCC4)c3s2)CC1 [II-a-97]
100 to 1000 nM | C=CC(=O)N1CCC2(CC1)CCN(C(=O)c1cc3nc(-c4cccc(O)c4)nc(N4CCOCC4)c3s1)CC2 [II-a-119, 1-(9-(2-(3-hydroxyphenyl)-4-morpholinothieno[3,2-d]pyrimidine-6-carbonyl)-3,9-diazaspiro[5.5]undecan-3-yl)prop-2-en-1-one]
100 to 1000 nM | C=CC(=O)N[C@H]1CCCC[C@H]1C(=O)N1CCN(Cc2cc3nc(-c4cccc5[nH]ncc45)nc(N4CCOCC4)c3s2)CC1 [II-a-96]
> 1000 nM | CC(C)=CC(=O)CCc1ccc(C#Cc2cc(-c3cccc4[nH]ncc34)nc(N3CCOCC3)c2)cc1 [XII-19, 1-(4-((2-(1H-indazol-4-yl)-6-morpholinopyridin-4-yl)ethynyl)phenyl)-5-methylhex-4-en-3-one]
10 to 100 nM | C=CC(=O)N1CCc2ccc(-c3cc4nc(-c5cccc(O)c5)nc(N5CCOCC5)c4s3)cc2C1 [II-a-106, 1-(7-(2-(3-hydroxyphenyl)-4-morpholinothieno[3,2-d]pyrimidin-6-yl)-3,4-dihydroisoquinolin-2(1H)-yl)prop-2-en-1-one]
100 to 1000 nM | C=CC(=O)Nc1ccc(OCc2cc3nc(-c4cnc(N)nc4)cc(N4CCOCC4)c3s2)cc1 [II-g-8, N-(4-((5-(2-aminopyrimidin-5-yl)-7-morpholinothieno[3,2-b]pyridin-2-yl)methoxy)phenyl)acrylamide]
> 1000 nM | C=CC(=O)NCCC(=O)N1CC=C(c2cc3nc(-c4cccc5[nH]ncc45)nc(N4CCOCC4)c3s2)CC1 [II-a-95, N-(3-(4-(2-(1H-indazol-4-yl)-4-morpholinothieno[3,2-d]pyrimidin-6-yl)-5,6-dihydropyridin-1(2H)-yl)-3-oxopropyl)acrylamide]
> 1000 nM | CCC(=O)N(C)CC(=O)N1CCC(n2nc(-c3ccc(OC)c(OC)c3)c3c(N)ncnc32)CC1 [XI^R-2, N-(2-(4-(4-amino-3-(3,4-dimethoxyphenyl)-1H-pyrazolo[3,4-d]pyrimidin-1-yl)piperidin-1-yl)-2-oxoethyl)-N-methylpropionamide]
10 to 100 nM | C=CC(=O)Nc1ccc(C(=O)N2CC=C(c3cc4nc(-c5cccc(O)c5)nc(N5CCOCC5)c4s3)CC2)cc1OCCCN [II-a-155, N-(2-(3-aminopropoxy)-4-(4-(2-(3-hydroxyphenyl)-4-morpholinothieno[3,2-d]pyrimidin-6-yl)-1,2,3,6-tetrahydropyridine-1-carbonyl)phenyl)acrylamide]
> 1000 nM | COc1ccc(-c2nn(C3CCN(C(=O)CCCC(=O)/C=C/c4ccccc4)CC3)c3ncnc(N)c23)cc1OC [XI-5]
< 10 nM | C=C(C)C(=O)CCC(=O)N1CCC(C#Cc2cc3nc(-c4cccc(O)c4)nc(N4CCOCC4)c3s2)CC1 [II-a-103, 1-(4-((2-(3-hydroxyphenyl)-4-morpholinothieno[3,2-d]pyrimidin-6-yl)ethynyl)piperidin-1-yl)-5-methylhex-5-ene-1,4-dione]
< 10 nM | C/C=C/C(=O)CCCC(=O)N1CCN(c2ccc(-c3ccnc4ccc(/C=C5\SC(=O)NC5=O)cc34)cn2)CC1 [V-14, (Z)-5-((4-(6-(4-((E)-5-oxooct-6-enoyl)piperazin-1-yl)pyridin-3-yl)quinolin-6-yl)methylene)thiazolidine-2,4-dione]
100 to 1000 nM | C=CC(=O)N1CCC(O)(C#Cc2cc3nc(-c4cccc5[nH]ncc45)nc(N4CCOCC4)c3s2)CC1 [II-a-101, 1-(4-((2-(1H-indazol-4-yl)-4-morpholinothieno[3,2-d]pyrimidin-6-yl)ethynyl)-4-hydroxypiperidin-1-yl)prop-2-en-1-one]
< 10 nM | C/C=C/C(=O)CCC(=O)NCc1cccc(-c2cc3nc(-c4cccc(O)c4)nc(N4CCOCC4)c3s2)c1 [II-a-79, (E)-N-(3-(2-(3-hydroxyphenyl)-4-morpholinothieno[3,2-d]pyrimidin-6-yl)benzyl)-4-oxohept-5-enamide]
